Reference: the NIST ThermoML archive (doi:10.1021/acs.jced.8b00591)
Numbers after ± are expanded uncertainties.

Experiment: xn = mol fraction of the nth substance listed
Settings: 101.3 kPa, Liquid; for viscosity: Falling or rolling sphere viscometry; for mass density: Vibrating tube method

CCn1cc[n+](C)c1.O=S(=O)([N-]S(=O)(=O)C(F)(F)F)C(F)(F)F + CCOC(=O)OCC
Settings | mass density [kg/m3] | viscosity [mPa·s]
288.15 K, x1 = 0.0991 | 1090.45 ± 2.7 | 1.938 ± 0.043
288.15 K, x1 = 0.1982 | 1179.3 ± 2.9 | 3.368 ± 0.075
288.15 K, x1 = 0.3024 | 1254.64 ± 3 | 5.628 ± 0.12
288.15 K, x1 = 0.3979 | 1312.21 ± 3.2 | 8.533 ± 0.19
288.15 K, x1 = 0.4982 | 1362.22 ± 3.3 | 12.38 ± 0.27
288.15 K, x1 = 0.5963 | 1404.91 ± 3.4 | 17.23 ± 0.38
288.15 K, x1 = 0.6992 | 1442.62 ± 3.5 | 24.14 ± 0.53
288.15 K, x1 = 0.7987 | 1475.05 ± 3.6 | 31.13 ± 0.69
288.15 K, x1 = 0.9 | 1503.75 ± 3.7 | 39.07 ± 0.87
288.15 K, x1 = 1 | 1528.55 ± 3.7 | 49.41 ± 1.1
293.15 K, x1 = 0.0991 | 1085.01 ± 2.6 | 1.769 ± 0.039
293.15 K, x1 = 0.1982 | 1173.95 ± 2.9 | 3.032 ± 0.067
293.15 K, x1 = 0.3024 | 1249.39 ± 3 | 4.987 ± 0.11
293.15 K, x1 = 0.3979 | 1306.99 ± 3.2 | 7.45 ± 0.16
293.15 K, x1 = 0.4982 | 1357.04 ± 3.3 | 10.66 ± 0.23
293.15 K, x1 = 0.5963 | 1399.78 ± 3.4 | 14.65 ± 0.32
293.15 K, x1 = 0.6992 | 1437.5 ± 3.5 | 20.32 ± 0.45
293.15 K, x1 = 0.7987 | 1469.95 ± 3.6 | 25.96 ± 0.57
293.15 K, x1 = 0.9 | 1498.66 ± 3.6 | 32.29 ± 0.71
293.15 K, x1 = 1 | 1523.47 ± 3.7 | 40.36 ± 0.89
298.15 K, x1 = 0.0991 | 1079.54 ± 2.6 | 1.623 ± 0.036
298.15 K, x1 = 0.1982 | 1168.6 ± 2.9 | 2.746 ± 0.06
298.15 K, x1 = 0.3024 | 1244.11 ± 3 | 4.452 ± 0.098
298.15 K, x1 = 0.3979 | 1301.78 ± 3.2 | 6.552 ± 0.14
298.15 K, x1 = 0.4982 | 1351.87 ± 3.3 | 9.269 ± 0.2
298.15 K, x1 = 0.5963 | 1394.64 ± 3.4 | 12.59 ± 0.28
298.15 K, x1 = 0.6992 | 1432.38 ± 3.5 | 17.65 ± 0.39
298.15 K, x1 = 0.7987 | 1464.86 ± 3.6 | 21.91 ± 0.48
298.15 K, x1 = 0.9 | 1493.58 ± 3.6 | 27.04 ± 0.6
298.15 K, x1 = 1 | 1518.39 ± 3.7 | 33.52 ± 0.74
303.15 K, x1 = 0.0991 | 1074.07 ± 2.6 | 1.495 ± 0.033
303.15 K, x1 = 0.1982 | 1163.23 ± 2.8 | 2.498 ± 0.055
303.15 K, x1 = 0.3024 | 1238.83 ± 3 | 3.992 ± 0.088
303.15 K, x1 = 0.3979 | 1296.56 ± 3.1 | 5.819 ± 0.13
303.15 K, x1 = 0.4982 | 1346.7 ± 3.3 | 8.127 ± 0.18
303.15 K, x1 = 0.5963 | 1389.51 ± 3.4 | 10.93 ± 0.24
303.15 K, x1 = 0.6992 | 1427.28 ± 3.5 | 15.41 ± 0.34
303.15 K, x1 = 0.7987 | 1459.77 ± 3.5 | 18.79 ± 0.41
303.15 K, x1 = 0.9 | 1488.51 ± 3.6 | 22.93 ± 0.51
303.15 K, x1 = 1 | 1513.34 ± 3.7 | 28.35 ± 0.62
308.15 K, x1 = 0.0991 | 1068.56 ± 2.6 | 1.389 ± 0.031
308.15 K, x1 = 0.1982 | 1157.86 ± 2.8 | 2.288 ± 0.05
308.15 K, x1 = 0.3024 | 1233.56 ± 3 | 3.607 ± 0.079
308.15 K, x1 = 0.3979 | 1291.36 ± 3.1 | 5.196 ± 0.11
308.15 K, x1 = 0.4982 | 1341.55 ± 3.3 | 7.192 ± 0.16
308.15 K, x1 = 0.5963 | 1384.4 ± 3.4 | 9.572 ± 0.21
308.15 K, x1 = 0.6992 | 1422.19 ± 3.5 | 13.37 ± 0.29
308.15 K, x1 = 0.7987 | 1454.71 ± 3.5 | 16.59 ± 0.36
308.15 K, x1 = 0.9 | 1483.46 ± 3.6 | 19.65 ± 0.43
308.15 K, x1 = 1 | 1508.3 ± 3.7 | 24.15 ± 0.53
313.15 K, x1 = 0.0991 | 1063.05 ± 2.6 | 1.29 ± 0.028
313.15 K, x1 = 0.1982 | 1152.48 ± 2.8 | 2.102 ± 0.046
313.15 K, x1 = 0.3024 | 1228.28 ± 3 | 3.278 ± 0.072
313.15 K, x1 = 0.3979 | 1286.15 ± 3.1 | 4.672 ± 0.1
313.15 K, x1 = 0.4982 | 1336.41 ± 3.2 | 6.41 ± 0.14
313.15 K, x1 = 0.5963 | 1379.3 ± 3.4 | 8.445 ± 0.19
313.15 K, x1 = 0.6992 | 1417.12 ± 3.5 | 11.6 ± 0.26
313.15 K, x1 = 0.7987 | 1449.66 ± 3.5 | 14.56 ± 0.32
313.15 K, x1 = 0.9 | 1478.42 ± 3.6 | 17.36 ± 0.38
313.15 K, x1 = 1 | 1503.28 ± 3.7 | 20.76 ± 0.46
318.15 K, x1 = 0.0991 | 1057.53 ± 2.6 | 1.204 ± 0.026
318.15 K, x1 = 0.1982 | 1147.11 ± 2.8 | 1.939 ± 0.043
318.15 K, x1 = 0.3024 | 1223.01 ± 3 | 2.993 ± 0.066
318.15 K, x1 = 0.3979 | 1280.95 ± 3.1 | 4.223 ± 0.093
318.15 K, x1 = 0.4982 | 1331.27 ± 3.2 | 5.749 ± 0.13
318.15 K, x1 = 0.5963 | 1374.2 ± 3.3 | 7.525 ± 0.17
318.15 K, x1 = 0.6992 | 1412.06 ± 3.4 | 10.14 ± 0.22
318.15 K, x1 = 0.7987 | 1444.62 ± 3.5 | 12.72 ± 0.28
318.15 K, x1 = 0.9 | 1473.41 ± 3.6 | 15.35 ± 0.34
318.15 K, x1 = 1 | 1498.27 ± 3.6 | 17.9 ± 0.39
323.15 K, x1 = 0.0991 | 1051.98 ± 2.6 | 1.121 ± 0.025
323.15 K, x1 = 0.1982 | 1141.72 ± 2.8 | 1.794 ± 0.039
323.15 K, x1 = 0.3024 | 1217.74 ± 3 | 2.746 ± 0.06
323.15 K, x1 = 0.3979 | 1275.76 ± 3.1 | 3.839 ± 0.084
323.15 K, x1 = 0.4982 | 1326.13 ± 3.2 | 5.184 ± 0.11
323.15 K, x1 = 0.5963 | 1369.11 ± 3.3 | 6.739 ± 0.15
323.15 K, x1 = 0.6992 | 1407.01 ± 3.4 | 8.895 ± 0.2
323.15 K, x1 = 0.7987 | 1439.6 ± 3.5 | 11.15 ± 0.25
323.15 K, x1 = 0.9 | 1468.41 ± 3.6 | 13.53 ± 0.3
323.15 K, x1 = 1 | 1493.28 ± 3.6 | 15.93 ± 0.35
328.15 K, x1 = 0.0991 | 1046.42 ± 2.6 | 1.049 ± 0.023
328.15 K, x1 = 0.1982 | 1136.32 ± 2.8 | 1.667 ± 0.036
328.15 K, x1 = 0.3024 | 1212.46 ± 3 | 2.528 ± 0.055
328.15 K, x1 = 0.3979 | 1270.58 ± 3.1 | 3.509 ± 0.077
328.15 K, x1 = 0.4982 | 1321.01 ± 3.2 | 4.704 ± 0.1
328.15 K, x1 = 0.5963 | 1364.03 ± 3.3 | 6.075 ± 0.13
328.15 K, x1 = 0.6992 | 1401.98 ± 3.4 | 7.875 ± 0.17
328.15 K, x1 = 0.7987 | 1434.59 ± 3.5 | 9.813 ± 0.22
328.15 K, x1 = 0.9 | 1463.42 ± 3.6 | 11.93 ± 0.26
328.15 K, x1 = 1 | 1488.31 ± 3.6 | 14.26 ± 0.31
